Test results from ChEMBL document CHEMBL4138123, “Design, synthesis and biological evaluation of novel pyrazolochalcones as potential modulators of PI3K/Akt/mTOR pathway and inducers of apoptosis in breast cancer cells” (Eur J Med Chem, 2017).

How the values were obtained:
Type in all cases: functional
MDA-MB-468 = assay: Cytotoxicity against human MDA-MB-468 cells assessed as cell growth at 10 uM after 48 hrs by sulforhodamine B assay relative to control; details: MDA-MB-468, 48 h, read-out: Activity
NCI-H522 = assay: Cytotoxicity against human NCI-H522 cells assessed as cell growth at 0.1 uM after 48 hrs by sulforhodamine B assay relative to control; details: NCI-H522, 48 h, read-out: Activity
HCC 2998 = assay: Cytotoxicity against human HCC2998 cells assessed as cell growth at 1 uM after 48 hrs by sulforhodamine B assay relative to control; details: HCC 2998, 48 h, read-out: Activity
CCRF-CEM = assay: Cytotoxicity against human CCRF-CEM cells assessed as cell growth at 0.01 uM after 48 hrs by sulforhodamine B assay relative to control; details: read-out: Activity
MDA-MB-435 = assay: Cytotoxicity against human MDA-MB-435 cells assessed as cell growth at 100 uM after 48 hrs by sulforhodamine B assay relative to control; details: MDA-MB-435, 48 h, read-out: Activity
MOLT-4 [1] = assay: Cytotoxicity against human MOLT4 cells assessed as cell growth at 100 uM after 48 hrs by sulforhodamine B assay relative to control; details: MOLT-4, 48 h, read-out: Activity
U-251 = assay: Cytotoxicity against human U251 cells assessed as cell growth at 0.01 uM after 48 hrs by sulforhodamine B assay relative to control; details: U-251, 48 h, read-out: Activity
M14 = assay: Cytotoxicity against human M14 cells assessed as cell growth at 100 uM after 48 hrs by sulforhodamine B assay relative to control; details: M14, 48 h, read-out: Activity
HL-60(TB) [2] = assay: Cytotoxicity against human HL-60(TB) cells assessed as cell growth at 1 uM after 48 hrs by sulforhodamine B assay relative to control; details: HL-60, 48 h, read-out: Activity
MCF7 = assay: Cytotoxicity against human MCF7 cells assessed as growth inhibition after 48 hrs by sulforhodamine B assay; details: MCF7, 48 h
786-0 = assay: Cytotoxicity against human 786-0 cells assessed as cell growth at 0.01 uM after 48 hrs by sulforhodamine B assay relative to control; details: 786-0, 48 h, read-out: Activity
UACC-257 [3] = assay: Cytotoxicity against human UACC257 cells assessed as growth inhibition after 48 hrs by sulforhodamine B assay; details: UACC-257, 48 h
ACHN = assay: Cytotoxicity against human ACHN cells assessed as cell growth at 10 uM after 48 hrs by sulforhodamine B assay relative to control; details: read-out: Activity
NCI-H226 = assay: Cytotoxicity against human NCI-H226 cells assessed as growth inhibition after 48 hrs by sulforhodamine B assay; details: NCI-H226, 48 h
RPMI-8226 [4] = assay: Cytotoxicity against human RPMI8226 cells assessed as cell growth at 100 uM after 48 hrs by sulforhodamine B assay relative to control; details: RPMI-8226, 48 h, read-out: Activity
UACC-257 [5] = assay: Cytotoxicity against human UACC257 cells assessed as cell growth at 10 uM after 48 hrs by sulforhodamine B assay relative to control; details: UACC-257, 48 h, read-out: Activity
TK-10 [6] = assay: Cytotoxicity against human TK10 cells assessed as cell growth at 0.1 uM after 48 hrs by sulforhodamine B assay relative to control; details: TK-10, 48 h, read-out: Activity
T47D = assay: Cytotoxicity against human T47D cells assessed as cell growth at 1 uM after 48 hrs by sulforhodamine B assay relative to control; details: read-out: Activity
SN12C = assay: Cytotoxicity against human SN12C cells assessed as cell growth at 100 uM after 48 hrs by sulforhodamine B assay relative to control; details: read-out: Activity
TK-10 [7] = assay: Cytotoxicity against human TK10 cells assessed as growth inhibition after 48 hrs by sulforhodamine B assay; details: TK-10, 48 h
MOLT-4 [8] = assay: Cytotoxicity against human MOLT4 cells assessed as growth inhibition after 48 hrs by sulforhodamine B assay; details: MOLT-4, 48 h
PC-3 = assay: Cytotoxicity against human PC3 cells assessed as cell growth at 10 uM after 48 hrs by sulforhodamine B assay relative to control; details: PC-3, 48 h, read-out: Activity
IGROV-1 [9] = assay: Cytotoxicity against human IGROV1 cells assessed as cell growth at 0.1 uM after 48 hrs by sulforhodamine B assay relative to control; details: IGROV-1, 48 h, read-out: Activity
SNB-19 [10] = assay: Cytotoxicity against human SNB19 cells assessed as cell growth at 1 uM after 48 hrs by sulforhodamine B assay relative to control; details: SNB-19, 48 h, read-out: Activity
SF-268 = assay: Cytotoxicity against human SF268 cells assessed as cell growth at 100 uM after 48 hrs by sulforhodamine B assay relative to control; details: SF-268, 48 h, read-out: Activity
RPMI-8226 [11] = assay: Cytotoxicity against human RPMI8226 cells assessed as cell growth at 10 uM after 48 hrs by sulforhodamine B assay relative to control; details: RPMI-8226, 48 h, read-out: Activity
HOP-62 = assay: Cytotoxicity against human HOP62 cells assessed as cell growth at 0.01 uM after 48 hrs by sulforhodamine B assay relative to control; details: HOP-62, 48 h, read-out: Activity
NCI-H322M [12] = assay: Cytotoxicity against human NCI-H322M cells assessed as cell growth at 0.01 uM after 48 hrs by sulforhodamine B assay relative to control; details: read-out: Activity
NCI-H322M [13] = assay: Cytotoxicity against human NCI-H322M cells assessed as cell growth at 1 uM after 48 hrs by sulforhodamine B assay relative to control; details: read-out: Activity
SNB-19 [14] = assay: Cytotoxicity against human SNB19 cells assessed as cell growth at 0.1 uM after 48 hrs by sulforhodamine B assay relative to control; details: SNB-19, 48 h, read-out: Activity
NCI/ADR-RES = assay: Cytotoxicity against human NCI/ADR-RES cells assessed as cell growth at 0.01 uM after 48 hrs by sulforhodamine B assay relative to control; details: read-out: Activity
HL-60(TB) [15] = assay: Cytotoxicity against human HL-60(TB) cells assessed as cell growth at 100 uM after 48 hrs by sulforhodamine B assay relative to control; details: HL-60, 48 h, read-out: Activity
HCT-15 = assay: Cytotoxicity against human HCT15 cells assessed as cell growth at 100 uM after 48 hrs by sulforhodamine B assay relative to control; details: HCT-15, 48 h, read-out: Activity
NCI-H23 = assay: Cytotoxicity against human NCI-H23 cells assessed as cell growth at 10 uM after 48 hrs by sulforhodamine B assay relative to control; details: NCI-H23, 48 h, read-out: Activity
SNB-19 [16] = assay: Cytotoxicity against human SNB19 cells assessed as growth inhibition after 48 hrs by sulforhodamine B assay; details: SNB-19, 48 h
IGROV-1 [17] = assay: Cytotoxicity against human IGROV1 cells assessed as cell growth at 0.01 uM after 48 hrs by sulforhodamine B assay relative to control; details: IGROV-1, 48 h, read-out: Activity
[18] = read-out: LC50 (the source's name)

`COc1cc(-c2cc(/C=C/C(=O)c3ccc4c(c3)OCO4)[nH]n2)cc(OC)c1OC` was tested, and the growth at 10 µM (MDA-MB-468) was -88%, the growth at 0.1 µM (NCI-H522) was 92% and the growth at 1 µM (HCC 2998) was 106%. The growth at 0.01 µM (CCRF-CEM) was 94%, the growth at 100 µM (MDA-MB-435) was 4% and the growth at 100 µM (MOLT-4 [1]) was -10%. For the same compound, the growth at 0.01 µM (U-251) was 96%, the growth at 100 µM (M14) was 22% and the growth at 1 µM (HL-60(TB) [2]) was 86%. For the same compound, the LC50 (MCF7) was over 100 µM, the growth at 0.01 µM (786-0) was 96% and the LC50 (UACC-257 [3]) was over 100 µM. It also gave a TGI (UACC-257 [3]) of 40.3 µM, a growth at 10 µM (ACHN) of -73% and an LC50 (concentration killing 50% of cells) (NCI-H226) of over 100 µM. It also gave a TGI (NCI-H226) of over 100 µM, a growth at 100 µM (RPMI-8226 [4]) of -37% and a growth at 10 µM (UACC-257 [5]) of 2%. For the same compound, the growth at 0.1 µM (TK-10 [6]) was 87%, the growth at 1 µM (T47D) was 79% and the growth at 100 µM (SN12C) was 18%. The LC50 (TK-10 [7]) was over 100 µM, the TGI (TK-10 [7]) was 5.73 µM and the TGI (MOLT-4 [8]) was 9.15 µM. The CC50 (MOLT-4 [8]; [18]) was over 100 µM, the growth at 10 µM (PC-3) was 6% and the growth at 0.1 µM (IGROV-1 [9]) was 97%. For the same compound, the growth at 1 µM (SNB-19 [10]) was 84%, the growth at 100 µM (SF-268) was -26% and the growth at 10 µM (RPMI-8226 [11]) was -41%. The growth at 0.01 µM (HOP-62) was 101%, the growth at 0.01 µM (NCI-H322M [12]) was 94% and the growth at 1 µM (NCI-H322M [13]) was 93%. For the same compound, the growth at 0.1 µM (SNB-19 [14]) was 88%, the growth at 0.01 µM (NCI/ADR-RES) was 96% and the growth at 100 µM (HL-60(TB) [15]) was -36%. For the same compound, the growth at 100 µM (HCT-15) was -10%, the growth at 10 µM (NCI-H23) was 63% and the TGI (SNB-19 [16]) was over 100 µM. The CC50 (SNB-19 [16]; [18]) was over 100 µM and the growth at 0.01 µM (IGROV-1 [17]) was 98%.
